Test results: patent US20240207283A1, “WATER SOLUBLE COMPLEX COMPOSITIONS AND METHODS THEREOF” (VETERINARY PHARMACY CORPORATION, priority 2021, published 2024)

Legend:
[1] = generally known; cited from earlier work
[2] = hydrotrope niacinamide

pH above which the clear solution begins to form [2] | SMILES | solubility in methanol [1] | solubility in water [1]
 | Cc1cnc(NC(=O)C2=C(O)c3ccccc3S(=O)(=O)N2C)s1 [meloxicam] | slightly soluble in methanol | insoluble in water
above 9.0 | CN1C(C(=O)Nc2ccccn2)=C(O)c2ccccc2S1(=O)=O [piroxicam] |  | 
